10 molecules from patent US20250388571A1, “AMP-ACTIVATED PROTEIN KINASE MODULATOR COMPOUNDS AND USES THEREOF” (Biolexis Therapeutics, Inc., priority 2024, published 2025) can be followed below.

The test system of assay [1] is AMPK signal pathway in HSKM cells. The assay is described as follows: Western blot assay, HSKM cells. It counts as cell-based, human. Conditions: some high dosage groups; cell type not given. (In western blotting, separated proteins are transferred to a membrane and probed.)
In assay [2] the test system is human cardiomyocyte cells (HCM). The assay is described as follows: Glucose uptake assay, human cardiomyocyte cells. It counts as cell-based. Conditions: for glucose uptake: donor not stated; for AMPK activation activity (glucose uptake assay): 10 doses 100 μM to 0.005 μM. On the procedure: FIGS. 17-19 show results for glucose update assays in human cardiomyocyte cells (“HCM”-healthy donor) (Promocell, cat. no. C-12810) when treated with compound I-11 (FIG. 17), compound I-7 (FIG. 18), and PF-06409577 (FIG. 19). After recovered HCM cells for 4 days, cells were starved for 3 hours in high glucose DMEM without FBS, treated with the components noted above in DMEM without FBS/glucose for 1 hour, and glucose uptake was detected using a glucose uptake kit (Promega). […] The bars show (from left to right) concentrations of 100 μM, 33 μM, 11 μM, 3.7 μM, 1.23 μM, 0.41 μM, 0.14 μM, 0.045 μM, 0.015 μM, 0.005 μM, 0 μM, and insulin.
FIGS. 20-22 show results for glucose update assays in human cardiomyocyte cells (“HCM”-diabetic donor) (Promocell, cat. no. C-12810) when treated with compound I-11 (FIG. 20), compound I-7 (FIG. 21), and PF-06409577 (FIG. 22). After recovered HCM cells for 4 days, cells were starved for 3 hours in high glucose DMEM without FBS, treated with the components noted above in DMEM without FBS/glucose for 1 hour, and glucose uptake was detected using a glucose uptake kit (Promega). […] The bars show (from left to right) concentrations of 100 μM, 33 μM, 11 μM, 3.7 μM, 1.23 μM, 0.41 μM, 0.14 μM, 0.045 μM, 0.015 μM, 0.005 μM, 0 μM, and insulin.
(§1) Human skeletal myoblasts were obtained (Thermofisher; BYU) and cultured in DMEM/F12 medium with 10% FBS. For differentiation, 2% horse serum low glucose DMEM medium was employed for 72 hours. Human cardiomyocytes cells (HCM cells; Promocell) were cultured in myocyte growth medium (Promocell). Human preadipocyte HWP-c cells (Promocell) were obtained from upper arm of diabetic II donor. Human preadipocyte HWP-c cells (Promocell) were obtained from abdomen of diabetic II donor. For differentiating human preadipocytes, cells were cultured in preadipocyte growth medium to total confluency stage. The growth medium was replaced with preadipocyte differentiation medium for 72 hours, then changed to PromoCell adipocyte nutrition medium to complete the differentiation process. THLE-2 cells were cultured in BEGM from Lonza/Clonetics Corporation, Walkersville, MD 21793 (BEGM Bullet Kit; CC3170). HepG2, L6 and C2Cl2 cells were cultured in EMEM medium.
(§2) After differentiation myoblasts, preadipocyte cells were starved by removing the medium and adding 100 μL DMEM without serum. The medium was then replaced with 100 μL DMEM±1 μM insulin at indicated concentration of representative compounds without serum or glucose. The cells were then incubated for 1 hour at 37° C. in 5% CO2. The cells were then removed from the medium and 50 μL of 0.1 mM 2DG in PBS was added. Cells were incubated for 30 minutes at 25° C. 25 μL of Stop Buffer was added and samples were mixed. 25 μL of Neutralization Buffer was then added and mixed. 100 μL of 2DG6P Detection Reagent was then added and mixed. Samples were then incubated for 1 hour at 25° C. Luminescence was then recorded with 0.3-1 second integration on a luminometer.

Assay [3] concerns the target AMPK (A2/B1/G2) (Homo sapiens, UniProt P54646+Q9UGJ0+Q9Y478). The assay is described as follows: AMPK kinase binding activity in activation mode (AC50). It counts as biochemical. The text has this:
In Vitro AMPK Kinase Inhibition Experiments

For assay [4], the system named is Human white preadipocyte (HWP) cells. The assay is described as follows: Glucose uptake assay, human white preadipocyte cells. It counts as cell-based. The conditions noted are these: for glucose uptake: human adipocyte cells / HWP-c cells, donor site not stated. On the procedure: (§3) FIGS. 5-8 show results for glucose update assays in Human white preadipocyte (HWP) cells (Promocell, cat. No. C-12735) when treated with compound I-11 (FIG. 5), compound I-7 (FIG. 6), MK-8722 (FIG. 7), and PF-06409577 (FIG. 8). HWP cells (subcutaneous upper arm of obese patient) were starved for 3 hours in DMEM without FBS, treated with the components noted above in […] DMEM without FBS/glucose for 1 hour, and glucose uptake was detected using a glucose uptake kit (Promega). […] The bars show (from left to right) concentrations of 100 μM, 33 μM, 11 μM, 3.7 μM, 1.23 μM, 0.41 μM, 0.14 μM, 0.045 μM, 0.015 μM, 0.005 μM, 0 μM, and insulin.
as §3, with “9-12” for “5-8”, “9),” for “5),”, “10),” for “6),”, “11),” for “7),”, “12).” for “8).”, “(abdomen cells)” for “(subcutaneous upper arm of obese patient)”
as §1, §2

For assay [5], the system named is human skeletal muscle cells (HSKM cells). Kind of assay: Glucose uptake assay, human skeletal muscle cells. It counts as cell-based. Conditions: for glucose uptake: starved, treated 1 hour. The protocol: FIGS. 1-4 show results for cells treated with differing doses of representative compounds of Structure (I) (i.e., compound I-11 in FIG. 1 and compound I-7 in FIG. 2) as well reference compounds (i.e., PF-06409577 in FIG. 3 and MK-8722 in FIG. 4). […] Cells were starved for 3 hours in high glucose DMEM without FBS, then treated with indicated compounds in DMEM without FBS/glucose for 1 hour, and glucose uptake was detected using an uptake glucose kit (Promega). The bars show (from left to right) concentrations of 100 μM, 33 μM, 11 μM, 3.7 μM, 1.23 μM, 0.41 μM, 0.14 μM, 0.045 μM, 0.015 μM, 0.005 μM, 0 μM, and insulin.
as §1, §2

Assay [6] concerns the target AMPK (A2/B1/G3) (Homo sapiens, UniProt P54646+Q9UGI9+Q9Y478). Kind of assay: AMPK kinase binding activity in activation mode (AC50). Format: biochemical.
In assay [7] the test system is human hepatocytes-THLE-2 cells. Kind of assay: Glucose uptake assay, THLE-2 cells. Format: cell-based. The protocol: FIGS. 13-16 show results for glucose update assays in THLE-2 cells (ATCC, cat. No. CRL-2706) when treated with compound I-11 (FIG. 13), compound I-7 (FIG. 14), MK-8722 (FIG. 15), and PF-06409577 (FIG. 16). The THLE-2 cells were starved for 3 hours in high glucose DMEM without FBS, treated with the components noted above in DMEM without FBS/glucose for 1 hour, and glucose uptake was detected using a glucose uptake kit (Promega). The bars show (from left to right) concentrations of 100 μM, 33 μM, 11 μM, 3.7 μM, 1.23 μM, 0.41 μM, 0.14 μM, 0.045 μM, 0.015 μM, 0.005 μM, 0 μM, and insulin.
as §1, §2

In assay [8] the target is AMPK (A2/B1/G1) (Homo sapiens, UniProt P54619+P54646+Q9Y478). The assay is described as follows: AMPK kinase binding activity in activation mode (AC50). Format: biochemical.
AMPK (A2/B1/G1), sequence (P54646 whole entry): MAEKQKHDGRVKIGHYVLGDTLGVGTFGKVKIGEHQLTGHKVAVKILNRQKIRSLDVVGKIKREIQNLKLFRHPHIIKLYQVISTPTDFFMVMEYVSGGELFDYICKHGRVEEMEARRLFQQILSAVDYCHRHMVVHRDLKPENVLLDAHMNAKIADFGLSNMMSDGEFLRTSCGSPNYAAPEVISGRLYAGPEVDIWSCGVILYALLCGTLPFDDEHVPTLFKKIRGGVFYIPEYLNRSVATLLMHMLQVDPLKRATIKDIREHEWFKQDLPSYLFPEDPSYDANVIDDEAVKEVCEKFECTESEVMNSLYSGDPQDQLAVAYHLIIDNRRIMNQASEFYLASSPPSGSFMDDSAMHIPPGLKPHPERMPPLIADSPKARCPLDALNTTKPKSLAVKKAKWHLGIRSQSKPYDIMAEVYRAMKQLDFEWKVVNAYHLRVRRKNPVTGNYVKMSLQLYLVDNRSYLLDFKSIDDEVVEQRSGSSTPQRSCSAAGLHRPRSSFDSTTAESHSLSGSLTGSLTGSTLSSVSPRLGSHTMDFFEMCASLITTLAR
AMPK (A2/B1/G1), sequence (Q9Y478 whole entry): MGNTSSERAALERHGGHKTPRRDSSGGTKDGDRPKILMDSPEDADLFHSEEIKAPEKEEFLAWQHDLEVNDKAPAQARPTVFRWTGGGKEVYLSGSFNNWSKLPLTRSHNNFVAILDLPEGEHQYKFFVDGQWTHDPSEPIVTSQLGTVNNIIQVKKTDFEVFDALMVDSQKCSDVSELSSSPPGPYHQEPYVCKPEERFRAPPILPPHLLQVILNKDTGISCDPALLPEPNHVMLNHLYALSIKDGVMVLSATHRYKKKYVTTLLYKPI
AMPK (A2/B1/G1), sequence (P54619 whole entry): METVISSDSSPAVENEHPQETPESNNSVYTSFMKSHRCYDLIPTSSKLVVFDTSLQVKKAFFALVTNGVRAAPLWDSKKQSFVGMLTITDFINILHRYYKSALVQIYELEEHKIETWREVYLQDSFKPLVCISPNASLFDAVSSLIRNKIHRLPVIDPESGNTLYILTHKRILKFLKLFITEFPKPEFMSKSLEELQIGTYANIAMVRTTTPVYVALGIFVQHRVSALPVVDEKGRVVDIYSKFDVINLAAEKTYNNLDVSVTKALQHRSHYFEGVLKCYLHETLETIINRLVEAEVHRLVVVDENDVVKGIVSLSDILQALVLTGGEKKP

Entries after “also recorded” stand apart in the source; their conditions may differ. A value given as a limit tells only on which side of the number the result lay.

AMPK (A2/B1/G3), sequence (P54646 whole entry): as the sequence (P54646 whole entry) above
AMPK (A2/B1/G3), sequence (Q9Y478 whole entry): as the sequence (Q9Y478 whole entry) above
AMPK (A2/B1/G3), sequence (Q9UGI9 whole entry): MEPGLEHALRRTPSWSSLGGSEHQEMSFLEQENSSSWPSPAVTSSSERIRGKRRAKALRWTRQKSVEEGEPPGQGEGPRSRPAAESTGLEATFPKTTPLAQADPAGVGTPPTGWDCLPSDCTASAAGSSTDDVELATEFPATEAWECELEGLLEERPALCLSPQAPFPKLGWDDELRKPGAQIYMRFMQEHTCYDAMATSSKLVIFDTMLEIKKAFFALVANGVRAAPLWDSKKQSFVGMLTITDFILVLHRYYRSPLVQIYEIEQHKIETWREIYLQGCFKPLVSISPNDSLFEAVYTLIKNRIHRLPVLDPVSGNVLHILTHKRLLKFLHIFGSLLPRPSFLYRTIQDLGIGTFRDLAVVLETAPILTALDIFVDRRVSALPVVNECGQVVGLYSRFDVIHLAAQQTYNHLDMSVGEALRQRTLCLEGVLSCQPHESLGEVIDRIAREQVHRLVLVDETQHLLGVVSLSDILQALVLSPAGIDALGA
AMPK (A2/B1/G2), sequence (P54646 whole entry): as the sequence (P54646 whole entry) above
AMPK (A2/B1/G2), sequence (Q9Y478 whole entry): as the sequence (Q9Y478 whole entry) above
AMPK (A2/B1/G2), sequence (Q9UGJ0 whole entry): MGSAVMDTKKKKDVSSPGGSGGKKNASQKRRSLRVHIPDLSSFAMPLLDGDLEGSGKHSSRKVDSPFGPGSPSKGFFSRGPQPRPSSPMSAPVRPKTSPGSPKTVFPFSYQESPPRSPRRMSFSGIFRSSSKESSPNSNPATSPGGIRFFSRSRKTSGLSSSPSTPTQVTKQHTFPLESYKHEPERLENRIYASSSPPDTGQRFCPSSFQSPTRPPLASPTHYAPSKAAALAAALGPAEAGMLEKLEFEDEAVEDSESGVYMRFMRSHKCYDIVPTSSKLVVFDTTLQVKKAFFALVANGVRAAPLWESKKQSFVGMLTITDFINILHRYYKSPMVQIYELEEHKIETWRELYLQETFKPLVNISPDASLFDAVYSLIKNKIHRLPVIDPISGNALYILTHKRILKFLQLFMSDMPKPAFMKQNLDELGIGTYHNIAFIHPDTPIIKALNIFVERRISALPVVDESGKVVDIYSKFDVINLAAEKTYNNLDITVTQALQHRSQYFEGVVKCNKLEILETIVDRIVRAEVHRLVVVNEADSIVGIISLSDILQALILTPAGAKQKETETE

The AC50 is the concentration giving half of the maximal activity seen. High values mean weaker potency, low ones greater potency. As for `O=c1[nH]c(-c2c[nH]c3cc(Cl)c(-c4ccc(C5(O)CCC5)cc4)cc23)no1` [Compound I-1, 3-(6-chloro-5-(4-(1-hydroxycyclobutyl)phenyl)-1H-indol-3-yl)-1,2,4-oxadiazol-5(4H)-one], the “p-AMPK, p-ACC, and p-Raptor expression” value in assay [1] is “could induce”. Further, the glucose uptake entry in assay [2] is listed as “did not induce glucose uptake in dose-dependent manner”; in assay [4], “induced glucose uptake”; in assay [5], “induced glucose uptake; also recorded: increased glucose uptake”; in assay [7], “induced glucose uptake”. The results for the AC50 in assay [3], in assay [6] and in assay [8] were at most 10 nM, at most 10 nM and 10 to 500 nM, respectively.
With `O=c1[nH]c(-c2c[nH]c3cc(F)c(-c4ccc(C5(O)CCC5)cc4)cc23)no1` [Compound I-7, 3-(6-fluoro-5-(4-(1-hydroxycyclobutyl)phenyl)-1H-indol-3-yl)-1,2,4-oxadiazol-5(4H)-one], the “p-AMPK, p-ACC, and p-Raptor expression” value in assay [1] was “could induce”. For the same molecule, the “AMPK activation activity (glucose uptake assay)” value in assay [2] (diabetic donor) and in assay [2] (healthy donor) was “did not show AMPK activation activity” each time. In addition, the glucose uptake result in assay [2] is “did not induce glucose uptake in dose-dependent manner”; in assay [4] it was “induced glucose uptake”; in assay [5] it was “induced glucose uptake; also recorded: increased glucose uptake”; in assay [7], “induced glucose uptake”. For the same molecule, the “dose dependence of glucose uptake (printed: activates insulin)” value in assay [4] (HWP cells, abdomen cells, 100 μM to 0.005 μM, 1 hour) is on record as “dose dependent manner”. In assay [5] (100 μM to 0.005 μM, 1 hour), the “dose dependence of glucose uptake (printed: activation of insulin / AMPK activation)” value is “dose dependence”.
For the molecule `O=c1[nH]c(-c2c[nH]c3ccc(-c4ccc(C5(O)CCC5)cc4)cc23)no1` [Compound I-10, 3-(5-(4-(1-hydroxycyclobutyl)phenyl)-1H-indol-3-yl)-1,2,4-oxadiazol-5(4H)-one], the “p-AMPK, p-ACC, and p-Raptor expression” value in assay [1] was “could induce”. Moreover, the glucose uptake entry in assay [2] is “did not induce glucose uptake in dose-dependent manner”; in assay [4] it was “induced glucose uptake”; in assay [5], “induced glucose uptake; also recorded: increased glucose uptake”; in assay [7], “induced glucose uptake”. In addition, the AC50 in assay [3], in assay [6] and in assay [8] was 10 to 500 nM in each case.
`O=c1[nH]c(-c2c[nH]c3cc(F)c(-c4ccc(C5(O)COC5)cc4)cc23)no1` [Compound I-12, 3-(6-fluoro-5-(4-(3-hydroxyoxetan-3-yl)phenyl)-1H-indol-3-yl)-1,2,4-oxadiazol-5(4H)-one]: the AC50 in assay [3] and in assay [6] was 10 to 500 nM each time.
`O=c1[nH]c(-c2c[nH]c3cc(F)c(-c4ccc(C5(O)COC5)cc4)c(F)c23)no1` [Compound I-13, 3-(4,6-difluoro-5-(4-(3-hydroxyoxetan-3-yl)phenyl)-1H-indol-3-yl)-1,2,4-oxadiazol-5(4H)-one]: the results for the AC50 in assay [3], in assay [6] and in assay [8] were at most 10 nM, at most 10 nM and 10 to 500 nM, respectively. Further, in assay [5], the glucose uptake entry is recorded as “increased glucose uptake”.
`COc1ccc(-c2cc3c(-c4noc(=O)[nH]4)c[nH]c3cc2F)c(OC)n1` [Compound I-14, 3-(5-(2,6-dimethoxypyridin-3-yl)-6-fluoro-1H-indol-3-yl)-1,2,4-oxadiazol-5(4H)-one]: the AC50 in assay [6] and in assay [8] was 10 to 500 nM each time.
As to `COc1ncccc1-c1cc2c(-c3noc(=O)[nH]3)c[nH]c2cc1F` [Compound I-15, 3-(6-fluoro-5-(2-methoxypyridin-3-yl)-1H-indol-3-yl)-1,2,4-oxadiazol-5(4H)-one], the results for the AC50 in assay [3], in assay [6] and in assay [8] were at most 10 nM, 10 to 500 nM and 10 to 500 nM, respectively.
Consider `COc1ccc(-c2cc3c(-c4noc(=O)[nH]4)c[nH]c3cc2F)cn1` [Compound I-16, 3-(6-fluoro-5-(6-methoxypyridin-3-yl)-1H-indol-3-yl)-1,2,4-oxadiazol-5(4H)-one], for which the AC50 in assay [3] fell in the range of 500 to 5000 nM; in assay [6], 500 to 5000 nM; in assay [8] it was 5000 to 7500 nM.
Take `COc1ccc(-c2c(F)cc3[nH]cc(-c4noc(=O)[nH]4)c3c2F)c(OC)n1` [Compound I-17, 3-(5-(2,6-dimethoxypyridin-3-yl)-4,6-difluoro-1H-indol-3-yl)-1,2,4-oxadiazol-5(4H)-one]: the AC50 in assay [3], in assay [6] and in assay [8] was 500 to 5000 nM each time.
On to `O=c1[nH]c(-c2c[nH]c3ccc(N4CC[C@H](O)C4)cc23)no1` [Compound I-20, (S)-3-(5-(3-hydroxypyrrolidin-1-yl)-1H-indol-3-yl)-1,2,4-oxadiazol-5(4H)-one], for which the figures for the AC50 in assay [6] and in assay [8] were 500 to 5000 nM and 5000 to 7500 nM, respectively.
